A word on the melting point: it is the temperature of the solid-liquid transition. In turn, `CCCOc1ccccc1-c1nc2nnc(SC)nc2c(=O)[nH]1` [Example 75, 5,6-Dihydro-3-methylthio-5-oxo-7-(2-propoxyphenyl)pyrimido[5,4-e][1,2,4]triazine] returned a melting point of 195 to 197 °C.

As to `CCCc1ccnc2c(=O)[nH]c(-c3cc(S(=O)(=O)N4CCC(C(=O)OCC)CC4)ccc3OCC)nc12` [Example 4, 2-[2-Ethoxy-5-(4-ethoxycarbonylpiperidinosulphonyl)phenyl]-8-n-propylpyrido[3,2-d]pyrimidin-4(3H)-one], the melting point lay within 204 to 205 °C.

Compound `CCCc1ccnc2c(=O)[nH]c(-c3cc(S(=O)(=O)NC)ccc3OCC)nc12` [Example 6, 2-[2-Ethoxy-5-(methylsulphamoyl)phenyl]-8-n-propylpyrido[3,2-d]pyrimidin-4(3H)-one] gave a melting point of 216 to 219 °C.

In the case of `CCCc1ccnc2c(=O)[nH]c(-c3cc(S(=O)(=O)N4CCNCC4)ccc3OCC)nc12` [Example 3, 2-[2-Ethoxy-5-(1-piperazinylsulphonyl)phenyl]-8-n-propylpyrido[3,2-d]pyrimidin-4(3H)-one], the melting point is 178 to 180 °C.

In turn, `CCCOc1ccccc1-c1nc2nc(SC)nnc2c(=O)[nH]1` [Example 79, 3-Methylthio-8-oxo-6-(2-propoxyphenyl)-7,8-dihydropyrimido[4,5-e][1,2,4]triazine] registered a melting point of 247 to 249 °C.

These data come from US6391885B1, “Method of treating a patient having precancerous lesions with phenyl cycloamino pyrimidinone derivatives” (Cell Pathways, Inc., priority 1995, dated 2002).
